Measurements reported in the supplement of paper PMC10307832.

Assays:
Assay in all cases: relative viability (nuclei count vs DMSO), 5 days (fraction); higher = more cells survive
[1] = compound: CC(C)C[C@H](NC(=O)[C@H](CCc1ccccc1)NC(=O)CN1CCOCC1)C(=O)N[C@@H](Cc1ccccc1)C(=O)N[C@@H](CC(C)C)C(=O)[C@@]1(C)CO1 [Carfilzomib] + NC(=O)Nc1cc(-c2cccc(F)c2)sc1C(=O)N[C@H]1CCCNC1 [AZD7762] (partner 0.2 µM)
Summary of the method: (§1)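 Five library-drug doses in √10 steps were combined with a fixed anchor-drug dose, or a single drug was given alone, by pin tool to lung cancer cell lines in 1536-well plates the day after seeding. Nuclei were stained and counted after 5 days. Relative viability is the nuclei count in treated wells over that in vehicle wells, taken as the median of duplicate plates.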

[2] = compound: C[C@@H](Oc1cc(-c2cnn(C3CCNCC3)c2)cnc1N)c1c(Cl)ccc(F)c1Cl [Crizotinib] + N=C(N)NC(=N)NCCc1ccccc1 [Phenformin] (partner 250 µM)
Summary of the method: as §1

[3] = compound: O=C(c1cc(Cc2n[nH]c(=O)c3ccccc23)ccc1F)N1CCN(C(=O)C2CC2)CC1 [Olaparib] + C[C@]1(O)C[C@@H](c2nc(-c3ccc4ccc(-c5ccccc5)nc4c3)c3c(N)nccn32)C1 [Linsitinib] (partner 1 µM)
Summary of the method: as §1

[4] = compound: O=C(c1cc(Cc2n[nH]c(=O)c3ccccc23)ccc1F)N1CCN(C(=O)C2CC2)CC1 [Olaparib] + Cc1nc(NC(=O)N2CCC[C@H]2C(N)=O)sc1-c1ccnc(C(C)(C)C(F)(F)F)c1 [Alpelisib] (partner 2 µM)
Summary of the method: as §1

| Cell Line | relative viability ([1]; first compound 0.001 µM) | relative viability ([1]; first compound 0.003162 µM) | relative viability ([1]; first compound 0.01 µM) | relative viability ([1]; first compound 0.03162 µM) | relative viability ([1]; first compound 0.1 µM) | relative viability ([2]; first compound 0.01 µM) | relative viability ([2]; first compound 0.03162 µM) | relative viability ([2]; first compound 0.1 µM) | relative viability ([2]; first compound 0.3162 µM) | relative viability ([2]; first compound 1 µM) | relative viability ([3]; first compound 0.08 µM) | relative viability ([3]; first compound 0.253 µM) | relative viability ([3]; first compound 2.53 µM) | relative viability ([3]; first compound 8 µM) | relative viability ([4]; first compound 0.08 µM) | relative viability ([4]; first compound 0.253 µM) | relative viability ([4]; first compound 2.53 µM) | relative viability ([4]; first compound 8 µM) |
| --- | --- | --- | --- | --- | --- | --- | --- | --- | --- | --- | --- | --- | --- | --- | --- | --- | --- | --- |
| HCC-827 | 0.194 | 0.202 | 0.207 | 0.201 | 0.17 | 0.359 | 0.397 | 0.412 | 0.346 | 0.397 | 0.899 | 0.886 | 0.922 | 0.774 | 1.02 | 0.934 | 0.828 | 0.876 |
| HOP-62 | 0.619 | 0.699 | 0.404 | 0.173 | 0.0821 | 0.7 | 0.625 | 0.731 | 0.556 | 0.714 | 1.11 | 1.16 | 0.968 | 0.47 | 1.25 | 0.774 | 0.754 | 0.782 |
| LC-2-ad | 0.798 | 0.913 | 0.856 | 0.794 | 0.608 | 0.572 | 0.6 | 0.544 | 0.463 | 0.544 | 0.81 | 0.754 | 0.787 | 0.633 | 0.893 | 0.746 | 0.863 | 0.695 |
| LCLC-97TM1 | 0.219 | 0.246 | 0.252 | 0.158 | 0.0638 | 0.472 | 0.468 | 0.508 | 0.454 | 0.441 | 0.166 | 0.178 | 0.162 | 0.18 | 0.256 | 0.219 | 0.271 | 0.19 |
| LCLC-103H | 0.767 | 0.849 | 0.759 | 0.778 | 0.402 | 0.348 | 0.313 | 0.337 | 0.328 | 0.294 | 1.13 | 1.07 | 1.04 | 0.873 | 1 | 0.928 | 1.09 | 0.923 |
| LK-2 | 0.369 | 0.519 | 0.399 | 0.0916 | 0.0762 | 0.583 | 0.37 | 0.221 |  | 0.325 | 0.588 | 0.691 | 0.549 | 0.485 | 1.07 | 1.03 | 1.25 | 0.945 |
| LOU-NH91 | 0.741 | 0.778 | 0.679 | 0.309 | 0.329 | 0.684 | 0.756 | 0.788 | 0.706 | 0.683 | 1.19 | 0.94 | 0.973 | 0.885 | 0.783 | 0.758 | 0.745 | 0.647 |
| LU99A | 0.346 | 0.368 | 0.33 | 0.26 | 0.187 | 0.761 | 0.857 | 0.786 | 0.769 | 1 | 0.587 | 0.515 | 0.414 | 0.333 | 0.608 | 0.487 | 0.471 | 0.422 |
| LXF-289 | 1.06 | 1.14 | 1.14 | 0.119 | 0.114 | 0.494 | 0.512 | 0.54 | 0.406 | 0.557 | 1.05 | 0.899 | 1.02 | 0.968 | 1.16 | 1.02 | 1.07 | 1.03 |
| NCI-H23 | 0.232 | 0.267 | 0.196 | 0.112 | 0.122 | 0.743 | 0.855 | 0.783 |  | 0.795 | 0.572 | 0.572 | 0.45 | 0.299 | 0.658 | 0.546 | 0.539 | 0.384 |
| NCI-H322M | 0.677 | 0.527 | 0.682 | 0.59 | 0.464 | 0.627 | 0.821 | 0.799 | 0.579 | 0.797 | 0.819 | 0.879 | 0.979 | 0.84 | 0.893 | 0.789 | 0.911 | 0.709 |
| NCI-H358 | 0.449 | 0.615 | 0.63 | 0.255 | 0.226 | 0.231 | 0.324 | 0.26 | 0.309 | 0.347 | 0.842 | 0.608 | 0.668 | 0.592 | 0.862 | 0.808 | 0.868 | 0.773 |
| NCI-H441 | 1.06 | 1.23 | 1.07 | 0.252 | 0.138 | 0.671 | 0.87 | 0.713 |  |  | 0.658 | 0.528 | 0.544 | 0.485 |  | 0.541 | 0.568 | 0.487 |
| NCI-H460 | 0.655 | 0.567 | 0.687 | 0.732 | 0.0739 | 0.488 | 0.521 | 0.536 | 0.526 | 0.564 | 0.86 | 0.614 | 0.316 | 0.191 | 0.62 | 0.38 | 0.238 | 0.173 |
| NCI-H596 | 1.05 | 1.22 | 1.09 | 0.66 | 0.211 | 0.754 | 0.859 | 0.68 | 0.761 | 0.754 | 1.04 | 0.856 | 0.923 | 0.744 | 0.532 | 0.452 | 0.551 | 0.41 |
